Entries after “also recorded” stand apart in the source; their conditions may differ. Read-outs that look alike come from different tables or passages of the source.

In data set [1] the test system is MM.1S cells. Kind of data set: Cell viability assay (CellTiter-Glo), MM.1S cells. In kind it is cell-based, human. The settings on record: for EC50: MM1.S. The procedure:
(§1) Cell culture and Reagents: Human MM cell lines MM1.S, U266, and OPM2 were cultured in RPMI-1640 medium supplemented with 10% fetal bovine serum, 100 units/mL penicillin, 100 µg/mL streptomycin at 37° C., 5% CO2. PBMCs were purchased from Lonza Bioscience, USA and maintained overnight in RPMI-1640 medium supplemented with 10% fetal bovine serum, 100 units/mL penicillin, 100 µg/mL streptomycin at 37° C., 5% CO2 before using for experiments. IL-6 and IGF-1 were purchased from R&D Systems. PD98059 was obtained from Cell Signaling Technology. Z-VAD-FMK was purchased from Santa Cruz. Bortezomib was obtained from Sigma. LS1090 [2-((7-nitrobenzo[c][1,2,5]oxadiazol-4-yl)thio)ethyl (3-(trifluoromethyl)phenyl)carbamate] was purchased from MolPort, Inc.M. Maybridge library was purchased from Thermo Fisher Scientific, NeXT Diversity 3500 and Diversity SAR 3500 sets were gifts from NCI.
(§2) Cell viability assay: Twenty thousand MM1.S, U266, OPM2, and PBMCs in 100 µL of growth media were added per well in a 96-well plate. The cells were incubated for 24 h with serial dilutions of LS1090 stock solution (10 mM in DMSO) or BTZ stock solution (1 mM in DMSO). Dilutions were prepared in growth media. Cells viability was assessed using the CellTiter-Glo luminescence-based assay (Promega). After adding 100 µL CellTiter-Glo reagent, relative luminescence units (RLU) were measured using the Synergy2 plate reader (BioTek) and expressed as a percentage of the untreated cell controls.
On the technique in general: Cellular ATP, detected with luciferase, serves as a proxy for viable cell number.

Data set [2] relates to U266 cells. Description: Cell viability assay (CellTiter-Glo), U266 cells. In kind it is cell-based, human. On the procedure:
as §1, §2

Data set [3] concerns chymotrypsin-like activity of proteasomes. Description: Proteasome-Glo Chymotrypsin-Like activity assay in MM.1S cells. The data set is classed as cell-based, human. The procedure:
Proteasome activity assays: MM.1S cells were seeded in a white 96-well plate at a density of 20000 per well. Cells were treated with 1 µML LS1090 or 100 nM Bz for 4 h before accessing chymotrypsin-like activity using Proteasome-Glo™ Chymotrypsin-Like, (Promega). After adding the Proteasome-Glo™ reagent, luminescence was determined as relative light units (RLU) using the Synergy2 plate reader (BioTek).

In data set [4] the test system is MM1.S-GFP-Luc disseminated MM xenograft.
Text: MM1.S cells stably transfected with GFP-firefly Luciferase (MM1.S-GFP-Luc), when administered intravenously (IV) in Fox Chase SCID beige mice, home to the bone marrow (BM) and are readily detectable by bioluminescence imaging (BLI) after 15-21 days from inoculation. On the third week from tumor inoculation, detecting the presence of the MM lesions in BM in mice with BLI photon flux of 106, we initiated therapy.
The mice were subjected to four dosages of therapy in two days apart over two weeks. The therapy were stopped after four dosages and the tumor progression over time was monitored by in vivo BLI once a week. […] Paralysis or loss of 15% of the original weight were taken as criteria of end point of the mice.
Each treated mouse received two doses per week separated by 3 days over two weeks for a total of four dosages, and BLI was used to monitor tumor progression. […] The endpoint for the study includes paralysis, loss of 20% of the original weight or sudden death due to the tumor burden before any other symptom appeared.
Fox Chase SCID Beige mice (From in house colony) (8-10 weeks old) were implanted with MM1.S cells stably transfected with GFP and CBR Luciferase (MM1.S-GFP-Luc) (2 million cells in 100 µL DPBS per mouse) by tail vein injection. […] The progression of tumor was monitored by whole-body BLI once a week post tumor inoculation. […]
The subject of a further data set is OPM2 cells. Kind of data set: Cell viability assay (CellTiter-Glo), OPM2 cells. The data set is classed as cell-based. The settings on record: OPM-2, human OPM2 cells. On the procedure: as §1
Cell viability assay: Twenty thousand MM1.S, U266, OPM2, and PBMCs in 100 µL of growth media were added per well in a 96-well plate. […] Cells viability was assessed using the CellTiter-Glo luminescence-based assay (Promega). After adding 100 µL CellTiter-Glo reagent, relative luminescence units (RLU) were measured using the Synergy2 plate reader (BioTek) and expressed as a percentage of the untreated cell controls.

The next data set concerns 5TGM1. Kind of data set: Growth inhibition of mouse MM cell line 5TGM1. The data set is classed as cell-based.
In the next data set the test system is PBMCs. Description: Cell viability assay (CellTiter-Glo), nontumor PBMCs. The data set is classed as cell-based. The settings on record: 24 h incubation, at the EC50/IC50 for MM1.S (0.49 µM) and higher.
For data set [5], the system named is MM.1S cells. Kind of data set: RealTime-Glo Annexin V Apoptosis and Necrosis Assay, MM.1S cells. In kind it is cell-based, human. From the text: LS1090 activates ERK1/2 to induce apoptosis in MM cells via a p53-independent pathway: Chemotherapeutics exert their effects via multiple cell death pathways, including apoptosis and necrosis. To determine the dominant mechanism of LS1090-induced MM cell death, RealTime-Glo Annexin V Apoptosis and Necrosis Assay were used, which report both pathways simultaneously. The method reports apoptosis by detecting phosphatidylserine on the outer leaflet of cell membranes and necrosis by measuring plasma membrane integrity. […] This delayed necrosis onset points to a cell death mechanism where pro-apoptosis induction transforms into secondary necrosis when phagocytes are not available to remove apoptotic cells.
Apoptosis and caspase activation assays: Caspase3/7 activity was measured using Caspase-Glo3/7 Assay System (Promega). MM.1S cells were seeded in a white 96-well plate at a density of 20000 cells per well. […] Caspase-Glo3/7 reagent was added directly to the cells and incubated for 30 min before recording luminescence using the Synergy2 plate reader (BioTek). […] Kinetics of apoptosis and necrosis was monitored using RealTimeGlo Annexin V Apoptosis and Necrosis Assay (Promega). […] The luminescence and fluorescence signals were monitored for 24 h. Relative luminescence units (RLU) and relative fluorescence units (RFU) were measured at different time points using the Synergy2 plate reader (BioTek).

Data set [6] concerns U266 cells. Description: RealTime-Glo Annexin V Apoptosis and Necrosis Assay, U266 cells. In kind it is cell-based, human. The settings on record: monitored 24 h.
In another data set the test system is ERK1/2. Description: Western blot of ERK1/2 activation in MM.1S cells. The data set is classed as cell-based, human. On the procedure: ERK1/2 signaling plays an essential role in the cascade of apoptosis-mediated cell death. To interrogate its involvement, MM.1S cells were treated with LS1090 and Western blots used to determine ERK1/2 activation. […] Given that ERK1/2 signaling can utilize caspase-dependent or independent pathways to induce apoptosis, LS1090 mediated activation of caspase 3/7 in MM.1S cells was examined in the presence or absence of ERK1/2 activation inhibitor, PD98059. […] The consequential effect of caspase 3/7 activation on cell death was further validated by determining the viability of LS1090-treated MM1.S cells in the presence or absence of the caspase inhibitor, Z-VAD-fmk.
Cell extract preparation and Western blotting: Protein extracts were prepared by washing cells with PBS (pH 7.4) and suspending in RIPA lysis buffer (20 mM Tris-HCI (pH 7.5), 150 mM NaCl, 1 mM Na2EDTA, 1 mM EGTA, 1% NP-40) containing protease and phosphatase inhibitors (Sigma). Equal amounts of protein, as determined by the BCA protein assay (Thermo Fisher Scientific), were subjected to SDS-PAGE (12% gels; Bio-Rad), followed by transfer to nitrocellulose membrane. […]
For orientation: A western blot detects proteins with antibodies after separation by electrophoresis.

For the next data set, the system named is caspase 3/7. Description: Caspase-Glo3/7 assay in MM.1S cells. The data set is classed as cell-based, human. The procedure:
Apoptosis and caspase activation assays: Caspase3/7 activity was measured using Caspase-Glo3/7 Assay System (Promega). MM.1S cells were seeded in a white 96-well plate at a density of 20000 cells per well. Cells were pretreated with 20 µmol/L PD98059 followed by incubation with 1 µM LS1090 for 4 h at 37° C., 5% CO2 before accessing caspase 3/7 activity. Caspase-Glo3/7 reagent was added directly to the cells and incubated for 30 min before recording luminescence using the Synergy2 plate reader (BioTek). Data were represented as a fold change from the untreated cells control. Kinetics of apoptosis and necrosis was monitored using RealTimeGlo Annexin V Apoptosis and Necrosis Assay (Promega). MM.1S cells were treated with 1 µM LS1090 and incubated in the presence of 100 µL the RealTimeGlo Annexin V Apoptosis and Necrosis reagent at 37° C., 5% CO2. The luminescence and fluorescence signals were monitored for 24 h. Relative luminescence units (RLU) and relative fluorescence units (RFU) were measured at different time points using the Synergy2 plate reader (BioTek).

The subject of a further data set is p53. Description: Western blot of p53 expression in MM.1S cells. In kind it is cell-based, human. On the procedure: (§3) ERK is known to exert its pro-apoptotic function by upregulating p53 and downregulating Bcl-2 expression. […] In contrast, the expression of pro-apoptotic protein, Bax, increased within 1 h post-treatment (FIG. 5H).
(§4) Cell extract preparation and Western blotting: Protein extracts were prepared by washing cells with PBS (pH 7.4) and suspending in RIPA lysis buffer (20 mM Tris-HCI (pH 7.5), 150 mM NaCl, 1 mM Na2EDTA, 1 mM EGTA, 1% NP-40) containing protease and phosphatase inhibitors (Sigma). Equal amounts of protein, as determined by the BCA protein assay (Thermo Fisher Scientific), were subjected to SDS-PAGE (12% gels; Bio-Rad), followed by transfer to nitrocellulose membrane. Membrane were incubated with 1:1000 anti-ERK1/2 (Thr202/Tyr204, anti-phosphoERK1/2 (Thr202/Tyr204), anti-p53, anti-Bcl2, anti-Bax (Cell Signaling Technology) and anti-βActin (Santa Cruz). Secondary antibodies consisted of horseradish peroxidase-conjugated goat anti-rabbit IgG or goat anti-mouse IgG (Sigma). Detection was done by the enhanced chemiluminescence method (Thermo Fisher Scientific).

The subject of a further data set is Bcl-2. Kind of data set: Western blot of Bcl-2 expression in MM.1S cells. In kind it is cell-based, human. On the procedure:
as §3, §4

The next data set deals with Bax. Description: Western blot of Bax expression in MM.1S cells. In kind it is cell-based, human. The procedure: as §3, §4
In data set [7] the test system is IGR Cap1, HT1080, and MDA MB231. Kind of data set: Viability of selected cancer cell lines after 24 h with LS1090. The data set is classed as cell-based. Particulars: 1 µM LS1090, 24 h. On the procedure:
Cells were treated with LS1090 for 24h, followed by assessment of viability using CellTitler-Glow assay. n=4 for each condition.
Additionally, the viability of selected cancer cell lines were evaluated (IGR Cap1, HT1080, and MDA MB231) after 24 h incubation with LS1090 (see, e.g. FIGS. 9-11).

Experimental for PBMCs: Cell culture and Reagents: Human MM cell lines MM1.S, U266, and OPM2 were cultured in RPMI-1640 medium supplemented with 10% fetal bovine serum, 100 units/mL penicillin, 100 µg/mL streptomycin at 37° C., 5% CO2. PBMCs were purchased from Lonza Bioscience, USA and maintained overnight in RPMI-1640 medium supplemented with 10% fetal bovine serum, 100 units/mL penicillin, 100 µg/mL streptomycin at 37° C., 5% CO2 before using for experiments. […] Bortezomib was obtained from Sigma.

One may read the EC50 as the concentration needed to bring the measured effect to its halfway point. As for `CC(C)C[C@H](NC(=O)[C@H](Cc1ccccc1)NC(=O)c1cnccn1)B(O)O` [BTZ, Bortezomib, reference compound], the EC50 with MM.1S cells [1] (Homo sapiens, MM.1S cells, read-out: EC50 of BTZ alone) was determined as 2 nM. For the same compound, the “EC50 of BTZ with increasing concentration ratio of LS1090 to BTZ” value in the data set with MM.1S cells [1] (MM.1S cells, in combination with LS1090) was 1.4 nM. Besides, in the data set on U266 cells [2] (U266 versus MM.1S), the “sensitivity of U266 cells to BTZ relative to MM.1S cells (less sensitive)” value is 10 fold. In addition, the “chymotrypsin-like activity in MM.1S cells, BTZ” value in data set [3] (0.1 µM, 4 h) is listed as “efficiently inhibits”. In data set [4] (0.5 mg/kg or 1.0 mg/kg IP, same regimen), the “course of disease, BTZ” value is “experienced early remission and relapsed after 6-week post-inoculation”. Further, the “toxicity of BTZ dose over 1 mg/Kg” value in data set [4] (BTZ over 1 mg/Kg IP) is given as “lethal effect on mice after the second dose”.
In general, IC50 refers to the concentration at which inhibition is half-maximal. On to `O=C(Nc1cccc(C(F)(F)F)c1)OCCSc1ccc([N+](=O)[O-])c2nonc12` [LS1090, 2-((7-nitrobenzo[c][1,2,5]oxadiazol-4-yl)thio)ethyl (3-(trifluoromethyl)phenyl)carbamate], for which, in the data set with MM.1S cells [1] (LS1090-treated MM1.S cells, absence of Z-VAD-fmk), the cells eradicated was determined as 60%. The EC50 with MM.1S cells [1] (human MM.1S cells, 24 h, read-out: EC50, MM.1S) was determined as 490 nM; in the data set on OPM2 cells (24 h) it was 490 nM; in the data set on U266 cells [2] (U-266, human U266 cells, 24 h) it was 440 nM; in the data set on 5TGM1 (mouse MM cell line 5TGM1), 320 nM. The “cytotoxicity in the presence of recombinant IL-6 or IGF-1” value with MM.1S cells [1] (MM.1S cells, 24 h) was “neither recombinant IL-6 nor IGF-1 blocked”. In addition, the IC50 came out at 490 nM in the data set with MM.1S cells [1] (human MM1.S cells); 490 nM in the data set with OPM2 cells; 440 nM with U266 cells [2] (U-266, human U266 cells); 320 nM in the data set on 5TGM1 (5TGM1, mouse MM cell line 5TGM). The cytotoxicity at 1 µM with U266 cells [2] (Homo sapiens, U-266, 1 µM LS1090, read-out: decrease of viability of U266 cells) was 55%. The “cytotoxicity on PBMCs” value in the data set on PBMCs is recorded as “significant toxic effect; also recorded: significant cytotoxicity”. In addition, the “time of apoptosis peak post-treatment” value with MM.1S cells [5] (MM cells treated with LS1090 (1 µM)) was “about 10 h”. Also, the apoptosis-necrosis time pattern entry is listed as “necrosis lagged apoptosis” in the data set with MM.1S cells [5] (MM.1S cells, monitored 24 h) and “same apoptosis-necrosis pattern” with U266 cells [6]. Moreover, in the data set with ERK1/2, the “duration of activated ERK1/2 state” value is recorded as “sustained over 3 h”. Also, the “time to ERK1/2 phosphorylation post-treatment” value in the data set on ERK1/2 is given as “less than 1 h”. The “increase in caspase 3/7 activity” value with caspase 3/7 (MM.1S cells, 1 µM LS1090, 4 h incubation, fold change from untreated cells) is reported as “over seven-fold increase”. In the data set with p53, the “p53 expression after treatment” value is reported as “lack of p53 enhancement”. Also, the “Bcl-2 expression after treatment” value in the data set with Bcl-2 was “did not downregulate”. Also, the “time to increased Bax expression post-treatment” value with Bax is listed as at most 1 h. Moreover, the “chymotrypsin-like activity in MM.1S cells, LS1090” value in data set [3] (4 h incubation at ten-fold the concentration of BTZ) was “did not significantly perturb”. Moreover, the “effect on viability of selected cancer cell lines” value in data set [7] is given as “had an effect on all tested cancer cell lines”.
With `COc1cccc(-c2cc(=O)c3ccccc3o2)c1N` [PD98059, reference compound], the “LS1090-triggered caspase 3/7 activity in the presence of PD98059” value in the data set with caspase 3/7 (MM.1S cells pretreated with 20 µmol/L PD98059, then 1 µM LS1090 4 h) is recorded as “inhibited”.
For Z-VAD-fmk [reference compound], in the data set on MM.1S cells [1] (MM1.S cells, p< 0.0001), the “LS1090-induced cell death on co-incubation with Z-VAD-fmk” value was “inhibited this event”.

(Values after patent US20230365516A1, “COMPOUNDS FOR CANCER THERAPY AND IMAGING” (Washington University, priority 2020, published 2023).)
